Measured values reported in patent publication US10842852B2, “Methods of delivering a polypeptide molecule to Otx2 target cells using an Otx2 targeting peptide” (Centre National de la Recherche Scientifique, priority 2009, dated 2020).
Entries after “also recorded” stand apart in the source; their conditions may differ. Ends that are not written are not given here.

Tests used:
[1] = system: binding of AP-Nt-Otx2 to bipolar cells and ganglion cells; assay: Antagonism of AP-Nt-Otx2 binding to sections of retinas by peptides; conditions: 2 μg/ml of peptide
Method: In order to verify that the RK-Otx2 peptide indeed had the same binding specificity as AP-Nt-Otx2, the ability of the RK-Otx2 and AA-Otx2 polypeptides to antagonize the binding of AP-Nt-Otx2 was tested. The test for binding of AP-Nt-Otx2 to sections of retinas was carried out as described above, with the exception that the incubation of the supernatant containing AP-Nt-Otx2 was carried out in the presence of 2 μg/ml of the RK-Otx2 peptide or of the AA-Otx2 peptide.

[2] = system: endogenous transfer of Otx2 to cells of the visual cortex; assay: Infusion of peptides into the right visual cortex of adult mice, count of cells expressing Otx2; format: in vivo; conditions: for number of cells expressing Otx2: adult mice, 0.25 mg/ml, 1 μl/h for 7 days into right visual cortex, infused vs control hemisphere
Method: For this purpose, the RK-Otx2 peptide (0.25 mg/ml), the AA-Otx2 peptide (0.25 mg/ml), or PBS buffer, combined with polysialic acid (0.25 mg/ml, in order to enable diffusion of the peptides and to avoid nonspecific binding thereof to neurons expressing polysialic acid at their surface), were slowly infused (1 μl/h) for 7 days into the right visual cortex of adult mice, using osmotic minipumps (Alzet 1003D, Alza) connected to stereotaxically implanted cannulas (Hensch et al., Science, 282, 1504-8, 1998; Fagiolini & Hensch, Nature, 404, 183-6, 2000). At the end of the infusion, the mice are perfused with 4% PFA, and brain sections (25 μm) are cut in order to study the localization of Otx2 and that of the RK-Otx2 peptide. Otx2 is visualized using a rat anti-Otx2 monoclonal antibody diluted to 1/200 (Sugiyama et al., Cell, 134, 508-20, 2008), followed by a donkey anti-rat antibody labeled with Alexa 488 (Molecular Probes), diluted to 1/2000. The RK-Otx2 peptide is visualized using streptavidin labeled with Cy5.
The cells expressing Otx2 were counted over a surface area of 700×350 μm encompassing layers I/II and IV of the binocular zone of the visual cortex.
It was verified, by Sytox green labeling, that the infusion had no effect in itself on the number of cells. In order to be sure that the decrease in the number of cells expressing Otx2 was not due to cell death, an infusion of this peptide was carried out according to the protocol described above, and the number of cells expressing Otx2 was measured 8 days after the end of the infusion.

retinal ganglion neurons [3] = conditions: previously shown, application PCT/FR 2009/000031; cited from earlier work
[4] = system: binding of AP-Nt-Otx2 to its target cells of the cerebral cortex; assay: Blocking of AP-Nt-Otx2 binding to cortical target cells on adult mouse brain sections; conditions: whole Otx2 1 μg/ml, peptides 2 μg/ml
Method: The interaction, with the cells of the cerebral cortex, of the AP-Otx2, AP-Nt-Otx2, AP-Hd-Otx2 and AP-HdAA-Otx2 fusion proteins ([…] a variant of AP-Nt-Otx2 in which the RK amino acid doublet has been replaced with the AA doublet), alone (culture supernatant diluted to 1/20th) or in the presence of a whole Otx2 (1 μg/ml) or of the RK-Otx2 or AA-Otx2 peptides (2 μg/ml), was tested on cryostat sections of adult mouse brains, using the protocol described in example 1 above.

retinal ganglion neurons [5] = assay: Survival of retinal ganglion neurons after NMDA injection into the eye (Brn3A mRNA, quantitative RT-PCR); format: in vivo, C57 B16 mice; conditions: mice, after 4 days
Method: C57 B16 mice received, in the right eye, 1 μl of injection buffer (PBS or 9‰ NaCl) containing either 1 mM of NMDA, or 1 mM of NMDA supplemented with 30 ng of the chimeric polypeptide, and in the left eye, the same volume of injection buffer, without additive.
The survival of the ganglion neurons was determined by measuring the level of expression of Brain 3A (Brn3A), a transcription factor which, in the retina, is specifically expressed in the ganglion neurons (Xiang et al., J. Neurosci., 15, 4762-4785, 1995).
After 4 days, the animals are sacrificed, the retinas are removed, and the mRNA is extracted therefrom.
The level of expression of Bm3A mRNA was determined by quantitative RT-PCR using the hypoxanthine phosphoribosyltransferase (HPRT) gene as reference gene, and the ratio between the expression of the Bm3A mRNA in the right eye and in the left eye was calculated.
The results are illustrated by FIG. 5. The additives used are indicated along the x-axis; the ratio between the amounts of Brn3A mRNA (standardized relative to the HPRT mRNA) in the right eye and in the left eye is indicated along the y-axis.

[6] = system: parvalbumin neurons of the visual cortex; assay: WFA labeling and parvalbumin expression in visual cortex after peptide infusion; format: in vivo; conditions: adult mice
Method: In addition, treated mouse brain frontal sections were prepared, as described in example 4 above, in order to determine the influence of the RK-Otx2 peptide on parvalbumin neurons. The sections were labeled either with WFA, as described in example 3, or using a mouse anti-parvalbumin monoclonal antibody ( 1/500, Sigma-Aldrich), which was visualized using a donkey anti-mouse antibody labeled with Cy3. The labeled cells were quantified as described in example 4.

[7] = system: retinal ganglion neurons (RGCs) and bipolar cells on sections of retina; assay: Binding test of AP fusion proteins and biotinylated peptides on sections of retina; conditions: supernatants diluted to 1/20, 2 hours at room temperature, alkaline phosphatase detection
Method: The sequences encoding the human Otx2 protein or encoding the fragments tested were cloned into the vector pAPtag-5 (GenHunter), in frame with the sequence encoding alkaline phosphatase. The various constructions carried out are represented diagrammatically in FIG. 1. HEK 293 cells cultured in culture dishes 10 cm in diameter were transfected with 10 μg of each of the vectors constructed, purified beforehand, using Lipofectamine 2000 (Invitrogen) according to the manufacturer's instructions. The transfected cells were incubated for 48 hours in DMEM/F12, supplemented with 10% of fetal bovine serum (FCS). The supernatant was collected, centrifuged at 100×g for 5 minutes and stored at −80° C. This supernatant is used, without purification, for testing the binding of the chimeric proteins on sections of retina. […]
Biotinylated peptides corresponding to various fragments of the N-terminal domain+homeodomain portion of Otx2 were synthesized and the binding thereof to sections of retina, prepared as described above, was tested. The incubation of the peptides with the sections of retina was carried out under the same conditions as those described above, and then the sections bearing the bound peptides were incubated with alkaline phosphatase-labeled streptavidin, and the alkaline phosphatase activity was detected as described above.

[8] = system: plasticity of the visual cortex; assay: Ocular dominance plasticity after 4 days monocular deprivation, single-unit extracellular electrophysiology; format: in vivo; conditions: adult mice; for ocular dominance induced by monocular deprivation: 4 days monocular deprivation after treatment
Method: The RK-Otx2 peptide or the AA-Otx2 peptide was infused in adult mice (therefore after closing of the critical period of plasticity), as described in example 4 above. Chondroitinase-ABC, or the injection buffer (deionized water+0.1% BSA), were injected (0.4 μl for each injection) at 3 sites surrounding the visual cortex (AP lambda, LM 1.5 mm; AP lambda, 4.0 mm; AP+1.5 mm; LM 2.5 mm) at two different depths (300 and 500 μm).
After infusion of the peptides or injection of chondroitinase ABC, the mice are subjected to monocular deprivation for 4 days, and the responses to visual stimuli are then measured by single-unit extracellular electrophysiology. The electrophysiology recordings are carried out under nembutal/chlorprothixene anesthesia using standard techniques (Gordon & Stryker, J Neurosci, 16, 3274-86, 1996; Mataga et al., Neuron, 44, 1031-41, 2004). 5 to 7 single-unit recordings were carried out for each mouse, on both sides of the medial-lateral axis of the primary visual cortex, in order to cover the monocular zone and the binocular zone, and to avoid sampling biases. Cell dominance scores were assigned to the cell responses, using a 7-point classification system (Wiesel & Hubel, J Neurophysiol, 26, 978-93, 1963) (Gordon & Stryker, J Neurosci, 16, 3274-86, 1996). The ocular dominance in the binocular zone was calculated for each mouse according to a contralateral bias index (CBI), determined as follows:
(CBI): [(n1−n7)+⅔(n2−n6)+⅓(n3−n5)+N]/2N, where N=total number of cells and nx=number of cells corresponding to an ocular dominance score of x.
This weighted mean of the bias in favor of one or other eye can range from 0, for complete ipsilateral dominance, to 1, for complete contralateral dominance.

[9] = system: GAGs of the perineuronal net associated with parvalbumin neurons; assay: Chondroitinase ABC treatment of adult mouse brain sections: WFA labeling and AP fusion protein binding; conditions: brain sections incubated 24 hours with chondroitinase ABC 2 U/ml
Method: In order to determine whether the perineuronal net associated with parvalbumin neurons was involved in the binding between AP-Nt-Otx2 and its target cells, the binding of AP-Otx2 was tested on cryostat sections of adult mouse brains fixed with methanol, and then incubated for 24 hours in the presence of chondroitinase ABC (2 U/ml) in a buffer containing 50 mM Tris [pH 8.0], 40 mM of sodium acetate, 0.1% BSA and protease inhibitors. In parallel, the sections, untreated or treated with chondroitinase ABC, were incubated with 0.01 mg/ml of Wisteria floribunda agglutinin lectin (WFA; Sigma-Aldrich), which binds to the GAGs of the perineuronal net, and which is labeled with FITC.

With “AAQRRERTTFTRAQL (Targeting peptide inactive mutant) [AA-Otx2]” the “blocking of the binding of AP-Nt-Otx2 to the bipolar cells and ganglion cells” value [1] was “has no effect on this binding” and the “number of cells expressing Otx2” value [2] was “only a small, insignificant reduction”.
In the case of “Otx2: Orthodenticle homolog 2, homeoprotein containing a bicoid-type homeodomain”, the “protection of retinal ganglion neurons against the toxic effects of NMDA” value (retinal ganglion neurons [3]) is given as “protects retinal ganglion neurons against the toxic effects of N-methyl-D-aspartate (NMDA)” and the “blocking of the binding of AP-Nt-Otx2 to its cortical target cells” value [4] is given as “block the binding of AP-Nt-Otx2 to its target cells”.
For “chimeric polypeptide: amino acids 1-97 of Otx2 (N-terminal domain and homeodomain) fused with the VP16 trans-activator domain of the herpes virus (SEQ ID NO: 4) (MLGDGDSPGPGFTPHDSAPYGALDMADFEFEQMFTDALGIDEYGG; VP16 transactivator domain)”, the “protection of ganglion neurons against the toxic effects of NMDA (Brn3A mRNA ratio right eye/left eye)” value (retinal ganglion neurons [5]; 1 μl into right eye, 1 mM NMDA plus 30 ng chimeric polypeptide) was “effectively protects the ganglion neurons against the toxic effects of the NMDA”.
For “RKQRRERTTFTRAQL (also: biotin (position not given here)) [RK-Otx2]”, the “expression of the sites for the binding of WFA and of parvalbumin” value ([6]; after peptide infusion) was “decreases the expression of the sites for the binding of WFA, and also that for parvalbumin”, the “decrease in the number of cells surrounded by sites for the binding of WFA” value ([6]; infused vs control hemisphere) was 51.3% and the “decrease in the number of parvalbumin-positive cells” value ([6]; infused vs control hemisphere) was 56.2%. For the same compound, the “blocking of the binding of AP-Nt-Otx2 to the bipolar cells and ganglion cells” value [1] was “blocks the binding of AP-Nt-Otx2 to the bipolar cells and to the ganglion cells”, the “binding to retinal cells” value [7] was “has the same binding specificity as the AP-Otx2 and AP-Nt-Otx2 fusion proteins; also recorded: binds, like AP-Nt-Otx2, to the ganglion and bipolar cells” and the “amount of peptide detected in the visual cortex” value ([2]; 8 days after the end of infusion) was “only very small amounts”. The “number of cells expressing Otx2 in the treated hemisphere” value ([2]; 8 days after the end of the infusion) was “restored to the level of that of the control hemisphere”, the “number of cells expressing Otx2” value [2] was “significantly reduces the number of cells expressing Otx2” and the “ocular dominance induced by monocular deprivation” value [8] was “induces an ocular dominance”. For the same compound, the “contralateral bias index (CBI)” value ([8]; after peptide infusion and 4 days monocular deprivation, decrease from 0.7) was 0.57 and the “blocking of the binding of AP-Nt-Otx2 to its cortical target cells” value [4] was “block the binding of AP-Nt-Otx2 to its target cells”.
In the case of `CN[C@H](CC(=O)O)C(=O)O` [NMDA, N-methyl-D-aspartate, reference compound], the “decrease in the amount of ganglion neurons” value (retinal ganglion neurons [5]; 1 μl of 1 mM NMDA alone into right eye, Brn3A mRNA) was “approximately 60%”.
In the case of chondroitinase ABC, the “effect of chondroitinase ABC treatment on binding of the AP fusion protein” value [9] was “abolishes the binding of AP-Nt-Otx2”, the “effect on GAGs of the perineuronal net (WFA labeling)” value [9] was “destroys the GAGs of the perineuronal net” and the “ocular dominance induced by monocular deprivation” value [8] was “as in those treated with the chondroitinase ABC”.
